Where two headings read alike, the source gives them in different places.

The values below come from patent US20100297194A1, “FORMULATION FOR ORAL ADMINISTRATION OF APOPTOSIS PROMOTER” (priority 2009, published 2010).

Series [1] in a line: solubility in lipid solvents (Example 1).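 Further: solubility in mg/g.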 It is filed as physicochemical. Particulars: ambient conditions. The method, then: Solubility of ABT-263 parent (free base, crystalline Form I) and ABT-263 bis-HCl salt was tested in a variety of lipid solvents and solvent mixtures in ambient conditions. “PE-91” is Phosal 53 MCT™+ethanol, 9:1 by volume. “LOT-343” is Labrafil M 1944 CS™+oleic acid+Tween 80™, 30:40:30 by weight.
In some cases, indicated in Table 4 by an asterisk (*), solubility was initially high but precipitation occurred upon standing.

The conditions of series [2]: monkey; similar solution in PEG-400/DMSO; cited from earlier work.
For series [3] the following is noted: rat; 2 mg/ml solution in PEG-400/DMSO; cited from earlier work.
Series [4] is described as follows: drug solubility in ternary excipient systems (Example 2). It is filed as physicochemical. On the set-up: key: ✓: vehicle miscible, or drug fully dissolved in vehicle; X: vehicle immiscible or miscible but turbid, or residual solids present (due to undissolved drug or precipitation). The note with it: 10% salt, 20% free base, listed as ABT-263 free base. The text has this: Solvents evaluated included Labrafil M 1944 CS™, Imwitor 742™ oleic acid, Capmul PG-8™, Capmul PG-12™, Lauroglycol 90™ and Phosal 53 MCT™. Surfactants evaluated included Tween™ 80, Cremophor RH40™, Gelucire 44/14™ and Labrasol™.

Series [5] is described as follows: oral bioavailability in a rat model. The note with it: in vivo, in 90% phosphatidylcholine+medium chain triglycerides 53/29 and 10% ethanol.

With `CC1(C)CCC(c2ccc(Cl)cc2)=C(CN2CCN(c3ccc(C(=O)NS(=O)(=O)c4ccc(N[C@H](CCN5CCOCC5)CSc5ccccc5)c(S(=O)(=O)C(F)(F)F)c4)cc3)CC2)C1` [ABT-263, N-(4-(4-((2-(4-chlorophenyl)-5,5-dimethyl-1-cyclohex-1-en-1-yl)methyl)piperazin-1-yl)benzoyl)-4-(((1R)-3-(morpholin-4-yl)-1-((phenylsulfanyl)methyl)propyl)amino)-3-((trffluoromethyl)sulfonyl)benzene-sulfonamide], the Solubility in series [1] (in Cremophor RH40) was above 226 mg/g; in series [1] (in LOT-343 (Labrafil M 1944 CS+oleic acid+Tween 80 30:40:30 by weight)), above 479 mg/g; in series [1] (in Labrafil M 1944 CS, listed as ABT-263 parent), above 265 mg/g; in series [1] (in Labrafil M 2125 CS, listed as ABT-263 parent) it was above 290 mg/g; in series [1] (in Labrasol, listed as ABT-263 parent), above 242 mg/g; in series [1] (in Lipoid S75 MCT, listed as ABT-263 parent) it was 150 to 200 mg/g. The Solubility is below 76 mg/g in series [1] (in Miglyol 810, listed as ABT-263 parent); above 250 mg/g in series [1] (in PE-91 (Phosal 53 MCT+ethanol 9:1 by volume), listed as ABT-263 parent); above 200 mg/g in series [1] (in PEG-400, listed as ABT-263 parent); above 300 mg/g in series [1] (in Phosal 53 MCT); above 256 mg/g in series [1] (in Tween 20, listed as ABT-263 parent); above 256 mg/g in series [1] (in Tween 80, listed as ABT-263 parent). Moreover, the Solubility in series [1] (in corn oil, listed as ABT-263 parent) is below 86 mg/g; in series [1] (in oleic acid, listed as ABT-263 parent), above 514 mg/g; in series [1] (in poloxamer 124, listed as ABT-263 parent), above 231 mg/g; in series [1] (in sesame oil, listed as ABT-263 parent), below 75 mg/g. Besides, the oral bioavailability entry in series [2] and in series [3] was “around 20%” each time. In addition, the ABT-263 solubility result in series [4] (ILC (Imwitor 742/Labrafil M 1944 CS/Cremophor RH40) 50:40:10 by weight), in series [4] (ILC (Imwitor 742/Labrafil M 1944 CS/Cremophor RH40) 60:30:10 by weight), in series [4] (ILL (Imwitor 742/Labrafil M 1944 CS/Labrasol) 40:40:20 by weight), in series [4] (ILL (Imwitor 742/Labrafil M 1944 CS/Labrasol) 50:30:20 by weight), in series [4] (ILL (Imwitor 742/Labrafil M 1944 CS/Labrasol) 50:40:10 by weight) and in series [4] (ILL (Imwitor 742/Labrafil M 1944 CS/Labrasol) 60:30:10 by weight) was “X” each time. Besides, the ABT-263 solubility result in series [4] (LIT (Labrafil M 1944 CS/Imwitor 742/Tween 80) 30:40:30 by weight), in series [4] (LIT (Labrafil M 1944 CS/Imwitor 742/Tween 80) 40:30:30 by weight), in series [4] (LLL (Lauroglycol 90/Labrafil M 1944 CS/Labrasol) 50:40:10 by weight) and in series [4] (LLL (Lauroglycol 90/Labrafil M 1944 CS/Labrasol) 60:30:10 by weight) was “X” throughout.

A word on the bioavailability: it is dose-corrected exposure relative to a reference, in per cent. `CN(C)CC[C@H](CSc1ccccc1)Nc1ccc(S(=O)(=O)NC(=O)c2ccc(N3CCN(Cc4ccccc4-c4ccc(Cl)cc4)CC3)cc2)cc1[N+](=O)[O-]` [ABT-737, N-(4-(4-((4′-chloro-(1,1′-biphenyl)-2-yl)methyl)piperazin-1-yl)benzoyl)-4-(((1R)-3-(dimethylamino)-1-((phenylsulfanyl)methyl)propyl)amino)-3-nitrobenzenesulfonamide] displayed a bioavailability in series [5] of 3.3%.
